Test system: murine OT1 T cells
Assay: Growth of murine OT1 T cells
Assay type: cell-based, mouse
Conditions: 500 µM, 7 days
Description: B16F10 cells were originally purchased from ATCC (catalogue no. CRL-6475) and genetically modified to express OVA, enhanced green fluorescent protein (GFP) and neomycin phosphotransferase. The resulting OVA expression B16F10-OVA cells were cultured in DMEM (catalogue no. 11995065, Thermo Fisher Scientific) containing 0.75 mg ml^−1 G418 sulphate (catalogue no. 10131027, Thermo Fisher Scientific). HEK 293T cells were purchased from Takara Bio (catalogue no. 632180) and cultured in DMEM. SKOV3 was purchased from ATCC (catalogue no. HTB-77) and cultured in McCoy’s 5A (Modified) Medium (catalogue no. 16600082, Thermo Fisher Scientific). Raji-GFP-Luc cells were purchased from Biocytogen (catalogue no. B-HCL-010) and cultured in Roswell Park Memorial Institute (RPMI) 1640 (catalogue no. 21875, Thermo Fisher Scientific). Jurkat cells were purchased from ATCC (catalogue no. TIB-152) and cultured in RPMI 1640. RAW 264.7 cells were purchased from ATCC (catalogue no. TIB-71) and cultured in RPMI 1640. HeLa cells were a gift from P. Lehner (University of Cambridge) and were authenticated using short tandem repeat profiling (Eurofins Genomics). HeLa cells were cultured in DMEM. […] Cell number and viability was determined using the ADAM-MC Automated Cell Counter (NanoEntek), CellDrop Automated Cell Counter (DeNovix) or TC20 Automated Cell Counter (Bio-Rad Laboratories).

Q: Which “growth of murine OT1 T cells” value does the source give for `CCOC(=O)CCCC(=O)OCC` [DEG, Diethyl glutarate] here?
A: did not affect the growth

Source: article PMC10590756, “Glutarate regulates T cell metabolism and anti-tumour immunity” (Nature Metabolism, 2023)
